Test results reported in paper PMC4225842 (2014).

Assays:
[1] = tested on: R13.2 (DNA, aptamer) TGTACCGTCTGAGCGATTCGTACTGTGGGCACCAATCGTACCCAATACTTGCGAATCAGCCAGTCAGTGTTAAGGAGTGC; assay: competitive elution of labelled DNA from bromacil beads, fluorescence; conditions: 100 mM NaCl, 2 mM MgCl2, 20 mM Tris-HCl, 0.01% methanol, 1 μM free compound
[2] = tested on: R13.2 (DNA, aptamer) TGTACCGTCTGAGCGATTCGTACTGTGGGCACCAATCGTACCCAATACTTGCGAATCAGCCAGTCAGTGTTAAGGAGTGC; assay: fluorescence saturation binding on magnetic beads; conditions: 100 mM NaCl, 2 mM MgCl2; immobilised compound (biotinylated bromacil on streptavidin beads); 20 mM Tris-HCl; 5 min

Cn1ccc(=O)[nH]c1=O
binding ([1]; 0.28 ± 0.09 RFU against 0.51 for bromacil): weak

CCNc1nc(Cl)nc(NC(C)C)n1
binding ([1]; 0.22 ± 0.15 RFU against 0.51 for bromacil): weak

CCC(C)n1c(=O)[nH]c(C)c(Br)c1=O (stereo not shown)
Kd [2]: 9.6 ± 7.8 nM
binding ([1]; 100 nM DNA, 0.51 ± 0.16 RFU (blank -0.0045)): yes
